Experimental findings from patent US10899738B2 (THE REGENTS OF THE UNIVERSITY OF MICHIGAN, priority 2016, dated 2021) are described below.

In the experiment the target is menin protein (Homo sapiens (Human), UniProt O00255). As to the kind of experiment: biochemical. Type of experiment: binding. The settings on record: FP competitive binding, menin protein 4 nM, FAM-MM2 probe 2 nM; for IC50: read-out: Menin Binding Affinity IC50. In short, it runs like this: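 Test compounds displaced FAM-MM2 (2 nM) from 4 nM menin after 30 min equilibration at room temperature in PBS buffer containing bovine γ-globulin, 4% DMSO and Triton X-100. Binding was followed by fluorescence polarization. Competition curves were fitted by nonlinear regression to give IC50 and Ki.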
menin protein, sequence (O00255 whole entry): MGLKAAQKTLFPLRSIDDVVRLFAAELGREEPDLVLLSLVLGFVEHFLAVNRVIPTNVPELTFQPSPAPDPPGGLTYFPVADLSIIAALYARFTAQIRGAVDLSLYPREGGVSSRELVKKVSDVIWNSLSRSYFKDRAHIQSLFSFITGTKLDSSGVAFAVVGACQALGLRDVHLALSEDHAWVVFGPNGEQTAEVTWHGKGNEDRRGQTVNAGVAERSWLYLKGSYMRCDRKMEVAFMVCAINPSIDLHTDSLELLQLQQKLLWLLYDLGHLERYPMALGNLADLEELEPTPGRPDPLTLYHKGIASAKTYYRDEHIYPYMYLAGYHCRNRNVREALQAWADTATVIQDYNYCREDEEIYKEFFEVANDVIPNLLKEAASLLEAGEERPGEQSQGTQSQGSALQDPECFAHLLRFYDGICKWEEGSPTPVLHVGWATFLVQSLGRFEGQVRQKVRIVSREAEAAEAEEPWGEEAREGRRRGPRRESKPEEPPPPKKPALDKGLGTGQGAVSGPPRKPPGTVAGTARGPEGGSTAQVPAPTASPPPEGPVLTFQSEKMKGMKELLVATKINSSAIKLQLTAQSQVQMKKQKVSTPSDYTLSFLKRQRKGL

As to `C[C@H](NC(=O)O[C@@H]1CCC[C@H]1[C@@](C#N)(c1ccccc1)C1CCN(CC2CN(c3ccc(S(=O)(=O)c4ccncc4)cc3)C2)CC1)c1ccccc1` [compound 218, (1R,2S)-2-((R)-cyano(phenyl)(1-((1-(4-(pyridin-4-ylsulfonyl)phenyl)azetidin-3-yl)methyl)piperidin-4-yl)methyl)cyclopentyl ((S)-1-phenylethyl)carbamate], the “Menin Binding Affinity IC50 (μM)” value is on record as “No inhibition”.
Consider `Cn1cccc1S(=O)(=O)c1ccc(N2CC(CN3CCC(C4(C5CCCC5)NCCc5ccccc54)CC3)C2)cc1` (stereo not drawn) [compound 98, 1-cyclopentyl-1-(1-((1-(4-((1-methyl-1H-pyrrol-2-yl)sulfonyl)phenyl)azetidin-3-yl)methyl)piperidin-4-yl)-1,2,3,4-tetrahydroisoquinoline], for which the IC50 is 0.021 µM.
As to `COC1CCC(C2(C3CCN(CCCOc4ccc(C#N)cc4)CC3)C(=O)NCc3ccccc32)C1` (stereo not drawn) [compound 26, 4-(3-(4-(4-(3-methoxycyclopentyl)-3-oxo-1,2,3,4-tetrahydroisoquinolin-4-yl)piperidin-1-yl)propoxy)benzonitrile], the “Menin Binding Affinity IC50 (μM)” value is “No inhibition”.
As to `CC(C)CCC1(C2CCN(CCCOc3ccc(C#N)cc3)CC2)NCCc2ccccc21` (stereo not drawn) [compound 250, 4-(3-(4-(1-isopentyl-1,2,3,4-tetrahydroisoquinolin-1-yl)piperidin-1-yl)propoxy)benzonitrile], the IC50 is 4.7 µM.
For `COC(=O)N[C@@H]1CCC[C@H]1C(C#N)(c1ccccc1)C1CCN(CC2CN(c3ccc(S(=O)(=O)C4CC4)cc3)C2)CC1` (mixture of isomers) [compound 320, rac-methyl ((1R,2S)-2-(cyano(1-((1-(4-(cyclopropylsulfonyl)phenyl)azetidin-3-yl)methyl)piperidin-4-yl)(phenyl)methyl)cyclopentyl)carbamate], the 50% inhibitory concentration (IC50) is 5.1 µM.
Consider `CN([C@H]1CCC[C@@H]1C(C#N)(c1ccccc1)C1CCN(CC2CN(c3ccc(S(=O)(=O)C4CC4)cc3)C2)CC1)S(C)(=O)=O` (mixture of isomers) [compound 273, rac-N-((1S,2R)-2-(cyano(1-((1-(4-(cyclopropylsulfonyl)phenyl)azetidin-3-yl)methyl)piperidin-4-yl)(phenyl)methyl)cyclopentyl)-N-methylmethanesulfonamide], for which the concentration for half-maximal inhibition (IC50) is 37.6 µM.
Regarding `CC(=O)N[C@@H]1CCC[C@H]1C(C#N)(c1ccccc1)C1CCN(CC2CN(c3ccc(C#N)cc3)C2)CC1` (mixture of isomers) [compound 383, rac-N-((1R,2S)-2-(cyano(1-((1-(4-cyanophenyl)azetidin-3-yl)methyl)piperidin-4-yl)(phenyl)methyl)cyclopentyl)acetamide], the 50% inhibitory concentration (IC50) amounted to 2.5 µM.
In the case of `CS(=O)(=O)c1ccc(N2CC(CN3CCC(C(C#N)(c4ccccc4)[C@H]4CCC[C@H]4S(C)(=O)=O)CC3)C2)cc1` (mixture of isomers) [compound 182, rac-2-((1R,2R)-2-(methylsulfonyl)cyclopentyl)-2-(1-((1-(4-(methylsulfonyl)phenyl)azetidin-3-yl)methyl)piperidin-4-yl)-2-phenylacetonitrile], the IC50 is 23.7 µM.
For the compound `Cn1cc(S(=O)(=O)c2ccc(N3CC(CN4CCC(C(CN5CCCC5)(C5=CCCC5)c5ccccc5)CC4)C3)cc2)cn1` (stereo not drawn) [compound 357, 4-(1-(cyclopent-1-en-1-yl)-1-phenyl-2-(pyrrolidin-1-yl)ethyl)-1-((1-(4-((1-methyl-1H-pyrazol-4-yl)sulfonyl)phenyl)azetidin-3-yl)methyl)piperidine], the IC50 is 0.032 µM.
As for `O=S(=O)(c1ccc(O[C@H]2C[C@@H](N3CCC(C4(C5CCCC5)NCCc5ccccc54)CC3)C2)cc1)C1CC1` (stereo partly drawn) [compound 89, 1-cyclopentyl-1-(1-((1s,3s)-3-(4-(cyclopropylsulfonyl)phenoxy)cyclobutyl)piperidin-4-yl)-1,2,3,4-tetrahydroisoquinoline], the IC50 amounted to 13.1 µM.
Consider `CNC(=O)N[C@@H]1CCC[C@H]1C(C#N)(c1ccccc1)C1CCN(CC2CN(c3ccc(S(=O)(=O)c4ccncc4)cc3)C2)CC1` (mixture of isomers) [compound 270, rac-1-((1R,2S)-2-(cyano(phenyl)(1-((1-(4-(pyridin-4-ylsulfonyl)phenyl)azetidin-3-yl)methyl)piperidin-4-yl)methyl)cyclopentyl)-3-methylurea], for which the IC50 came to 0.881 µM.
In the case of `c1ccc(CN2CCC(CC3(C4CCCC4)NCCc4ccccc43)CC2)cc1` (stereo not drawn) [compound 106, 1-((1-benzylpiperidin-4-yl)methyl)-1-cyclopentyl-1,2,3,4-tetrahydroisoquinoline], the half-inhibitory concentration (IC50) came out at 84.1 µM.
Regarding `CSC[C@H]1CCC[C@@H]1C(C#N)(c1ccccc1)C1CCN(CC2CN(c3ccc(S(=O)(=O)c4ccncc4)cc3)C2)CC1` (mixture of isomers) [compound 259, rac-2-((1S,2S)-2-((methylthio)methyl)cyclopentyl)-2-phenyl-2-(1-((1-(4-(pyridin-4-ylsulfonyl)phenyl)azetidin-3-yl)methyl)piperidin-4-yl)acetonitrile], the IC50 came to 10.3 µM.
`Cc1cc(C#N)ccc1N1CC(CN2CCC(C3(C4CCCC4)NCCc4ccccc43)CC2)C1` (stereo not drawn) [compound 138, 4-(3-((4-(1-cyclopentyl-1,2,3,4-tetrahydroisoquinolin-1-yl)piperidin-1-yl)methyl)azetidin-1-yl)-3-methylbenzonitrile]: the IC50 is 0.099 µM.
With `N#CC(c1ccccc1)(C1CCN(CC2CN(c3ccc(S(=O)(=O)c4ccncc4)cc3)C2)CC1)[C@H]1CCC[C@@H]1OC(=O)N1CCC1` (mixture of isomers) [compound 221, rac-(1S,2R)-2-(cyano(phenyl)(1-((1-(4-(pyridin-4-ylsulfonyl)phenyl)azetidin-3-yl)methyl)piperidin-4-yl)methyl)cyclopentyl azetidine-1-carboxylate], the half-inhibitory concentration (IC50) was 0.075 µM.
On to `COC(=O)[C@@H]1CCC[C@H]1C(C#N)(c1ccccc1)C1CCN(CC2CN(c3ccc(S(=O)(=O)C4CC4)cc3)C2)CC1` (mixture of isomers) [compound 333, methyl rac-(1R,2R)-2-(cyano(1-((1-(4-(cyclopropylsulfonyl)phenyl)azetidin-3-yl)(phenyl)methyl)cyclopentane-1-carboxylate], for which the half-inhibitory concentration (IC50) is 5.1 µM.
Regarding `CCO[C@@H]1CCC[C@H]1C(C#N)(c1ccccc1)C1CCN(CC2CN(c3ccc(S(=O)(=O)c4ccncc4)cc3)C2)CC1` (mixture of isomers) [compound 199, rac-2-((1S,2R)-2-ethoxycyclopentyl)-2-phenyl-2-(1-((1-(4-(pyridin-4-ylsulfonyl)phenyl)azetidin-3-yl)methyl)piperidin-4-yl)acetonitrile], the 50% inhibitory concentration (IC50) turned out to be 9 µM.
Take `CC(C)C(=O)N1CCCCC1C1(C2CCN(CCCOc3ccc(C#N)cc3)CC2)CN(C)Cc2ccccc21` (stereo not drawn) [compound 300, 4-(3-(4-(4-(1-isobutyrylpiperidin-2-yl)-2-methyl-1,2,3,4-tetrahydroisoquinolin-4-yl)piperidin-1-yl)propoxy)benzonitrile]: the IC50 was determined as 56.5 µM.
Regarding `CN1Cc2ccccc2C(C2CCCC2)(C2CCN(CCCOc3ccc(S(C)(=O)=O)cc3)CC2)C1` (stereo not drawn) [compound 68, 4-cyclopentyl-2-methyl-4-(1-(3-(4-(methylsulfonyl)phenoxy)propyl)piperidin-4-yl)-1,2,3,4-tetrahydroisoquinoline], the IC50 was determined as 0.181 µM.
On the same count and under the same terms, then `CO[C@H]1CCC[C@@H]1C(C#N)(c1ccccc1)C1CCN(CC2CN(c3ccc(S(C)(=O)=O)cc3)C2)CC1` (mixture of isomers) [compound 181, rac-2-((1R,2S)-2-methoxycyclopentyl)-2-(1-((1-(4-(methylsulfonyl)phneyl)azetidin-3-yl)methyl)piperidin-4-yl)-2-phenylacetonitrile], with 18.1 µM; and `N#Cc1ccc(OCCCN2CCC(C(C#N)(c3ccccc3)C3CCCCC3)CC2)cc1` (stereo not drawn) [compound 294, 4-(3-(4-(cyano(cyclohexyl)(phenyl)methyl)piperidin-1-yl)propoxy)benzonitrile], with 11.1 µM; and `N#Cc1cc2ccc(C(=O)N3CCC(CC4(C5CCCC5)NCCc5ccccc54)CC3)cc2[nH]1` (stereo not drawn) [compound 118, 6-(4-((1-cyclopentyl-1,2,3,4-tetrahydroisoquinolin-1-yl)methyl)piperidine-1-carbonyl)-1H-indole-2-carbonitrile], with 21.8 µM.
On to `CC(=O)O[C@@H]1CCC[C@H]1C(C#N)(c1cccc(F)c1)C1CCN(CC2CN(c3ccc(S(=O)(=O)c4ccccc4)cc3)C2)CC1` (mixture of isomers) [compound 313, rac-(1R,2S)-2-(cyano(3-fluorophenyl)(1-((1-(4-(phenylsulfonyl)phenyl)azetidin-3-yl)methyl)piperidin-4-yl)methyl)cyclopentyl acetate], for which the IC50 amounted to 13.8 µM.
Regarding `CCCC(=O)N1CCCCC1C1(C2CCN(CCCOc3ccc(C#N)cc3)CC2)CN(C)Cc2ccccc21` (stereo not drawn) [compound 302, 4-(3-(4-(4-(1-butyrylpiperidin-2-yl)-2-methyl-1,2,3,4-tetrahydroisoquinolin-4-yl)piperidin-1-yl)propoxy)benzonitrile], the IC50 worked out at 6.5 µM.
On the same count and under the same terms, then `CS(=O)(=O)N[C@H]1CCC[C@@H]1C(C#N)(c1ccccc1)C1CCN(CC2CN(c3ccc(S(=O)(=O)c4ccncc4)cc3)C2)CC1` (mixture of isomers) [compound 267, rac-N-((1S,2R)-2-(cyano(phenyl)(1-((1-(4-(pyridin-4-ylsulfony)phenyl)azetidin-3-yl)methyl)piperidin-4-yl)methyl)cyclopentyl) methanesulfonamide], with 0.437 µM; and `CCNC(=O)[C@H]1CCC[C@@H]1C(C#N)(c1ccccc1)C1CCN(CC2CN(c3ccc(S(=O)(=O)C4CC4)cc3)C2)CC1` (mixture of isomers) [compound 335, rac-(1S,2S)-2-(cyano(1-((1-(4-(cyclopropylsulfonyl)phenyl)azetidin-3-yl)methyl)piperidin-4-yl)(phenyl)methyl)-N-ethylcyclopentane-1-carboxamide], with 5.6 µM; and `COCC(C1CC1)C(C#N)(c1ccccc1)C1CCN(CCCOc2ccc(C#N)cc2)CC1` (stereo not drawn) [compound 329], with 19 µM.

What is called IC50 is the point on the concentration scale where inhibition reaches its midpoint.
